Data on 5 compounds can be found in patent US4071627A, “2-Oximino-tetrahydro-1,4-thiazin-5-one compounds and pesticidal carbamate derivatives” (priority 1976, dated 1978).

SMILES strings stand for the structures.

Data set [1] concerns bean aphid (Aphis fabae Scop.). The data set can be described thus: Bean Aphid Foliage Spray Test. Format: in vivo. Further details: key: A: excellent control; B: partial control; C: no control. As to conditions: 500 ppm, 24 hours, adults and nymphs. Here is the method: (§1) Suspensions of the test compounds were prepared by dissolving one gram of compound in 50 milliliters of acetone in which had been dissolved 0.1 gram (10 percent of the weight of compound) of an alkylphenoxy polyethoxyethanol surfactant, as an emulsifying or dispersing agent. The resulting solution was mixed into 150 milliliters of water to give roughly 200 milliliters of a suspension containing the compound in finely divided form. The thus-prepared stock suspension contained 0.5 percent by weight of test compound. The test concentrations in parts per million by weight employed in the tests described hereinbelow were obtained by appropriate dilutions of the stock suspension with water. The test procedures were as follows:
Adults and nymphal stages of the bean aphid (Aphis fabae Scop.) reared on potted dwarf nasturtium plants at 65°-70° F. and 50-70 percent relative humidity, constituted the test insects. For testing purposes, the number of aphids per pot was standardized to 100-150 by trimming plants containing excess aphids.
The test compounds were formulated by diluting the stock suspension with water to give a suspension containing 500 parts of test compound per million parts of final formulation.
The potted plants (one pot per compound tested) infested with 100-150 aphids, were placed on a revolving turntable and sprayed with 100-110 milliliters of test compound formulated by use of a DeVilbiss spray gun set at 40 psig. air pressure. This application, which lasted 25 seconds, was sufficient to wet the plants to run-off. As a control, 100-110 milliliters of a water-acetone-emulsifier solution containing no test compound were also sprayed on infested plants. After spraying, the pots were placed on their sides on a sheet of white standard mimeograph paper which had been previously ruled to facilitate counting. Temperature and humidity in the test room during the 24 hour holding period were 65°-70° F. and 50-70 percent, respectively. Aphids which fell onto the paper and were unable to remain standing after being uprighted were considered dead. Aphids remaining on the plants were observed closely for movement and those which were unable to move the length of the body upon stimulation by prodding were considered dead. Percent mortality was recorded for various concentration levels.
(§2) In these tests the pesticidal activity of the compounds against aphid, mite, Southern Armyworm, Mexican Bean Beetle, and house fly was rated as follows: […]

The subject of data set [2] is two-spotted mite (Tetranychus urticae Koch). The data set can be described thus: Mite Foliage Spray Test. In kind it is in vivo. Further details: key: A: excellent control; B: partial control; C: no control. Conditions: 500 ppm, six days, adults and nymphs. Here is the method: as §1
Adults and nymphal stages of the two-spotted mite (Tetranychus urticae Koch), reared on Tengergreen bean plants at 80±5 percent relative humidity, were the test organisms. Infested leaves from a stock culture were placed on the primary leaves of two bean plants 6 to 8 inches in height, growing in a 21/2 inch clay pot. 150-200 Mites, a sufficient number for testing, transferred from the excised leaves to the fresh plants in a period of 24 hours. Following the 24 hour transfer period, the excised leaves were removed from the infested plants. The test compounds were formulated by diluting the stock suspension with water to give a suspension containing 500 parts of test compound per million parts of final formulation. The potted plants (one pot per compound) were placed on a revolving turntable and sprayed with 100-110 milliliters of test compound formulation by use of a DeVilbiss spray gun set at 40 psig. air pressure. This application, which lasted 25 seconds, was sufficient to wet the plants to run-off. As a control, 100-110 milliliters of a water solution containing acetone and emulsifier in the same concentrations as the test compound formulation, but containing no test compound, were also sprayed on infested plants. The sprayed plants were held at 80±5 percent relative humidity for six days, after which a mortality count of motile forms was made. Microscopic examination for motile forms was made on the leaves of the test plants. Any individual which was capable of locomotion upon prodding was considering living.
as §2

Data set [3] relates to southern armyworm (Prodenia eridania, (Cram.)). The data set can be described thus: Southern Armyworm Leaf Spray Test. In kind it is in vivo. Further details: key: A: excellent control; B: partial control; C: no control. Conditions: 500 ppm, three days, larvae. Here is the method: as §1
Larvae of the southern armyworm (Prodenia eridania, (Cram.)), reared on Tendergreen bean plants at a temperature of 80°±5° F. and a relative humidity of 50±5 percent, constituted the test insects.
The test compounds were formulated by diluting the stock suspension with water to give a suspension containing 500 parts of test compound per million parts of final formulation. Potted Tendergreen bean plants of standard height and age were placed on a revolving turntable and sprayed with 100-110 milliliters of test compound formulation by use of a DeVilbiss spray gun set at 10 psig air pressure. This application, which lasted 25 seconds, was sufficient to wet plants to run-off. As a control, 100-110 milliliters of a water-acetone-emulsifier solution containing no test compound were also sprayed on infested plants. When dry, the paired leaves were separated and each one was placed in a 9 centimeter Petri dish lined with moistened filter paper. Five randomly selected larvae were introduced into each dish and the dishes were closed. The closed dishes were labeled and held at 80°-85° F. for three days. Although the larvae cound easily consume the whole leaf within 24 hours, no more food was added. Larvae which were unable to move the length of the body, even upon stimulation by prodding, were considered dead. Percent mortality was […] for various concentration levels.
as §2

Data set [4] concerns Mexican bean beetle (Epilachna varivestis, Muls.). The data set can be described thus: Mexican Bean Beetle Leaf Spray Test. Format: in vivo. As to conditions: 500 ppm, three days, fourth instar larvae. Further details: key: A: excellent control; B: partial control; C: no control. The protocol: as §1
Fourth instar larvae of the Mexican bean beetle (Epilachna varivestis, Muls.), reared on Tendergreen bean plants at a temperature of 80°±5° F. and 50±5 percent relative humidity, were the test insects.
The test compounds were formulated by diluting the stock suspension with water to give a suspension containing 500 parts of test compound per million parts of final formation. Potted Tendergreen bean plants of standard height and age were placed on a revolving turntable and sprayed with 100-110 milliliters of test compound formulated by use of a DeVilbiss spray gun set at 10 psig air pressure. This application, which lasted 25 seconds, was sufficient to wet plants to run-off. As a control, 100-110 milliliters of a water-acetone-emulsifier solution containing no test compound were also sprayed on infested plants. When dry, the paired leaves were separated and each was placed in a 9 centimeter Petri dish lined with moistened filter paper. Five randomly selected larvae were introduced into each dish, and the dishes were closed. The closed dishes were labeled and held at a temperature of 80°±5° F. for three days. Although the larvae could easily consume the leaf within 24 to 48 hours, no more food was added. Larvae which were unable to move the length of the body, even upon stimulation, were considered dead.
as §2

Data set [5] concerns house flies (Musca domestica, L.). Kind of data set: Fly Bait Test. In kind it is in vivo. Further details: key: A: excellent control; B: partial control; C: no control. Conditions: 500 ppm, 24 hours, adults. The protocol: as §1
Four to six day old adult house flies (Musca domestica, L.), reared according to the specifications of the Chemical Specialities Manufacturing Association (Blue Book, McNair-Dorland Co., N.Y. 1954; pages 243-244, 261) under controlled conditions of 80°±5° F. and 50±5 percent relative humidity, were the test insects. The flies were immobilized by anesthetizing with carbon dioxide and 25 immobilized individuals, males and females, were transferred to a cage consisting of a standard food strainer about 5 inches in diameter which was inverted over a wrapping-paper-covered surface. The test compounds were formulated by diluting the stock suspension with a 10 percent (by weight) sugar solution to give a suspension containing 500 parts of test compound per million parts of final formulation, by weight. Ten milliliters of the test formulation were added to a souffle cup containing a 1-inch square of an absorbent cotton pad. This bait cup was introduced and centered on the blotting paper under the food strainer prior to admitting the anesthetized flies. The caged flies were allowed to feed on the bait for 24 hours, at a temperature of 80°±5° F. and the relative humidity of 50±5 percent.
as §2

A further data set can be described thus: in vivo. Conditions: rat, po. Here is the method: Certain of these compositions were also evaluated to determine their peroral toxicity to mammals. The animal selected for this experiment was the rat.

For the compound `CNC(=O)ON=C1SCC(=O)NC1C` (stereo not shown) [2-[O-(Methylcarbamoyl)oximino]-3-methyltetrahydro-1,4-thiazin-5-one], in data set [1], the “Biological Activity, Aphid” value is recorded as “B”. The “Biological Activity, Mite” value in data set [2] is “A”. Also, the “Biological Activity, Southern Armyworm” value in data set [3] is “A”. The “Biological Activity, Mexican Bean Beetle” value in data set [4] was “A”. In addition, in data set [5], the “Biological Activity, House Fly” value is given as “A”. Besides, the LD50 in the data set “in vivo” amounted to 5.66 mg/kg.

Turning to `CC1C(=NOC(=O)N(C)SC(Cl)(Cl)Cl)SCC(=O)N1C` (stereo not shown) [2-[O-(N-Trichloromethanesulfenyl-N-methylcarbamoyl)oximino]-3,4-dimethyltetrahydro-1,4-thiazin-5-one], the “Biological Activity, Aphid” value in data set [1] is reported as “B”. In data set [2], the “Biological Activity, Mite” value is given as “A”. Besides, in data set [3], the “Biological Activity, Southern Armyworm” value was “B”. Also, in data set [4], the “Biological Activity, Mexican Bean Beetle” value is reported as “A”. In data set [5], the “Biological Activity, House Fly” value is on record as “A”. In addition, the 50% lethal dose (LD50) in “in vivo” was 3.54 mg/kg.

For `CCN1C(=O)CSC(=NO)C1C` (stereo not shown) [2-Oximino-4-ethyl-3-methyltetrahydro-1,4-thiazin-5-one], in data set [1], the “Biological Activity, Aphid” value is “C”. Further, the “Biological Activity, Mite” value in data set [2] is on record as “C”. Further, the “Biological Activity, Southern Armyworm” value in data set [3] was “C”. The “Biological Activity, Mexican Bean Beetle” value in data set [4] was “C”. For the same compound, the “Biological Activity, House Fly” value in data set [5] was “C”.

`CNC(=O)ON=C1SCC(=O)N(C(C)C)C1C` (stereo not shown) [2-[O-(Methylcarbamoyl)oximino]-4-isopropyl-3-methyltetrahydro-1,4-thiazin-5-one]: in data set [1], the “Biological Activity, Aphid” value is listed as “C”. In addition, in data set [2], the “Biological Activity, Mite” value was “B”. Also, the “Biological Activity, Southern Armyworm” value in data set [3] was “C”. Further, the “Biological Activity, Mexican Bean Beetle” value in data set [4] is “C”. Further, the “Biological Activity, House Fly” value in data set [5] was “A”.

For `CNC(=O)ON=C1SC(C)C(=O)NC1(C)C` (stereo not shown) [2-[O-(Methylcarbamoyl)oximino]-3,3,6-trimethyltetrahydro-1,4-thiazin-5-one], the “Biological Activity, Aphid” value in data set [1] is reported as “A”. Besides, the “Biological Activity, Mite” value in data set [2] is recorded as “A”. Further, the “Biological Activity, Southern Armyworm” value in data set [3] is on record as “B”. The “Biological Activity, Mexican Bean Beetle” value in data set [4] is on record as “A”. Moreover, in data set [5], the “Biological Activity, House Fly” value is recorded as “A”. Also, the LD50 in the data set “in vivo” worked out at 0.884 mg/kg.

The term LD50 denotes the dose at which mortality reaches 50%.
